Measurements as given in patent US8124624B2, “Substituted sulfonamide compounds” (Gruenenthal GmbH, priority 2008, dated 2012).
Where a name gives a salt, the structure may show the parent alone.

Assays:
human B1R = target: T1, human B1R (Homo sapiens, UniProt P46663); test: FLIPR Ca2+ influx assay, B1R antagonism, human (hB1R CHO K1 cells); assay type: cell-based; conditions: test substance 10 μM, CHO K1 cells stably transfected with human B1R, agonist Lys-Des-Arg9-bradykinin at EC80, % inhibition compared with maximum achievable inhibition; for inhibition at 10 µM: read-out: B1R antagonism, human [10 μM] % inhibition
T1 construct: expressed in transfected cells; host or cells: CHO K1 cells (hB1R cells)
T1 sequence (P46663 1-353): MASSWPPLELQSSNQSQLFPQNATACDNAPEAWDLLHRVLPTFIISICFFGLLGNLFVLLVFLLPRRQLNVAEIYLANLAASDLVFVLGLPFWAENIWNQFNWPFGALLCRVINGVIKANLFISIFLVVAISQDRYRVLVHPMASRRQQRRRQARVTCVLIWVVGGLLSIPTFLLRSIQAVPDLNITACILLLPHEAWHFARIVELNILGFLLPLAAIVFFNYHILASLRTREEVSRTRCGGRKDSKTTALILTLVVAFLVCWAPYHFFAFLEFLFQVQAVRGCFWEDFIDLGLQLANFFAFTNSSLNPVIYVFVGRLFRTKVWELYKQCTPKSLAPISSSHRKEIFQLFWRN
Description: The agonistic or antagonistic action of substances can be quantified on the bradykinin receptor 1 (B1R) of the species human and rat using ectopically expressing cell lines (CHO K1 cells) and with the aid of a Ca^2+-sensitive dye (Fluo-4) using a fluorescent imaging plate reader (FLIPR). The indication in % activation is based on the Ca^2+ signal after addition of Lys-Des-Arg^9-bradykinin (0.5 nM) or Des-Arg^9-bradykinin (100 nM). Antagonists lead to suppression of the Ca^2+ influx after the addition of the agonist. % Inhibition compared with the maximum achievable inhibition is indicated.
The agonistic or antagonistic action of substances can be determined on the bradykinin receptor 1 (B1R) of the species human and rat using the following assay. According to this assay, the Ca^2+ influx through the channel is quantified with the aid of a Ca^2+-sensitive dye (Fluo-4 type, Molecular Probes Europe BV, Leiden, Netherlands) using a Fluorescent Imaging Plate Reader (FLIPR, Molecular Devices, Sunnyvale, USA).
Chinese hamster ovary cells (CHO K1 cells) which have been stably transfected with the human B1R gene (hB1R cells) or with the B1R gene of the rat (rB1R cells) are used. For functional studies, the cells are plated out on black 96-well plates having a clear base (BD Biosciences, Heidelberg, Germany or Greiner, Frickenhausen, Germany) in a density of 20,000-35,000 cells/well. The cells are incubated overnight at 37° C. and with 5% CO2 in culture medium (hB1R cells: Nutrient Mixture Ham's F12, Gibco Invitrogen GmbH, Karlsruhe, Germany or DMEM, Sigma-Aldrich, Taufkirchen, Germany; rB1R cells: D-MEM/F12, Gibco Invitrogen GmbH, Karlsruhe, Germany), with 10 vol. % FBS (fetal bovine serum, Gibco Invitrogen GmbH, Karlsruhe, Germany or PAN Biotech GmbH, Aidenbach, Germany).
On the following day, the cells are loaded for 60 minutes at 37° C. with 2.13 μM Fluo-4 (Molecular Probes Europe BV, Leiden, Netherlands) in HBSS buffer (Hank's buffered saline solution, Gibco Invitrogen GmbH, Karlsruhe, Germany) […] (Sigma-Aldrich, Taufkirchen, Germany) and 10 mM HEPES (Sigma-Aldrich, Taufkirchen, Germany). The plates are then washed twice with HBSS buffer, and HBSS buffer additionally containing 0.1% BSA (bovine serum albumin; Sigma-Aldrich, Taufkirchen, Germany), 5.6 mM glucose and 0.05% gelatin (Merck KGaA, Darmstadt, Germany) is added to the plates. After incubation for a further 20 minutes at room temperature, the plates are inserted into the FLIPR for Ca^2+ measurement.
Alternatively, washing is carried out with buffer A (15 mM HEPES, 80 mM NaCl, 5 mM KCl, 1.2 mM CaCl2, 0.7 mM MgSO4, 2 g/l glucose, 2.5 mM probenecid) followed by loading with buffer A with added 2.5 μM Fluo-4 and 0.025% Pluronic F127 (Sigma-Aldrich, Taufkirchen, Germany). The cells are then washed twice with buffer A and incubated for 30 minutes at room temperature with buffer A additionally containing 0.05% BSA and 0.05% gelatin and are then inserted into the FLIPR for Ca^2+ measurement.
The Ca^2+-dependent fluorescence is measured before and after the addition of substances (λex=488 nm, λem=540 nm). Quantification is carried out by measuring the highest fluorescence intensity (FC, fluorescence counts) over time.
The FLIPR protocol consists of two substance additions. Test substances (10 μM) are first pipetted onto the cells and the Ca^2+ influx is compared with the control (hB1R: Lys-Des-Arg^9-bradykinin >=50 nM; rB1R: Des-Arg^9-bradykinin 10 μM). This gives the activation in %, based on the Ca^2+ signal after addition of Lys-Des-Arg^9-bradykinin (>=50 nM) or Des-Arg^9-bradykinin (10 μM). After 10-20 minutes' incubation, Lys-Des-Arg^9-bradykinin (hB1R) or Des-Arg^9-bradykinin (rB1R) is applied in the concentration of the EC80, and the influx of Ca^2+ is likewise determined. Antagonists lead to suppression of the Ca^2+ influx. The % inhibition compared with the maximum achievable inhibition is calculated. […]

B1R of the rat = target: T2, B1R of the rat (Rattus norvegicus, UniProt P97583); test: FLIPR Ca2+ influx assay, B1R antagonism, rat (rB1R CHO K1 cells); assay type: cell-based; conditions: test substance 10 μM, CHO K1 cells stably transfected with rat B1R, agonist Des-Arg9-bradykinin at EC80, % inhibition compared with maximum achievable inhibition; for inhibition at 10 µM: read-out: B1R antagonism, rat [10 μM] % inhibition
T2 construct: expressed in transfected cells; host or cells: CHO K1 cells (rB1R cells)
T2 sequence (P97583 1-337): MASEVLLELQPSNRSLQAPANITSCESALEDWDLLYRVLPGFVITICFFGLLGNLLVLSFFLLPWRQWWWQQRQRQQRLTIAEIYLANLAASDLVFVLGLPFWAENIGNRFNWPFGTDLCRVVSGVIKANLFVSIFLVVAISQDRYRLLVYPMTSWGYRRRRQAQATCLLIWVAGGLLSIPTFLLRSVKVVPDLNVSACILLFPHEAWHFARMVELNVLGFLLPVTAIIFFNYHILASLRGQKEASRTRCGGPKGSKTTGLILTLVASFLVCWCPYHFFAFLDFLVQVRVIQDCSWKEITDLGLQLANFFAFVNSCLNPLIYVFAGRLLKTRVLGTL
Procedure, shortened: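 CHO K1 cells stably expressing human or rat B1R were loaded with Fluo-4, and Ca^2+ fluorescence was read on a FLIPR. After 10–20 min with test substance, agonist was added at EC80: Lys-Des-Arg^9-bradykinin for hB1R, Des-Arg^9-bradykinin for rB1R. % inhibition is relative to maximal inhibition; IC50 from multiple concentrations, n=2–3, N≥2.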

SMILES	inhibition at 10 µM (human B1R) [%]	inhibition at 10 µM (B1R of the rat) [%]	B1R antagonism, human [10 μM] % inhibition (human B1R) [%]	B1R antagonism, rat [10 μM] % inhibition (B1R of the rat) [%]
O=C(CC(NS(=O)(=O)c1ccc2ccccc2c1)c1ccccc1)N1CCC(CCN2CCCC2)(c2cccnc2)CC1 (centres unmarked) [Example 1, N-(3-Oxo-1-phenyl-3-(4-(pyridin-3-yl)-4-(2-(pyrrolidin-1-yl)ethyl)piperidin-1-yl)propyl)naphthalene-2-sulfonamide]	104	63		
O=C(COCC1CCCCN1S(=O)(=O)c1ccccc1C(F)(F)F)N1CCC(CCCN2CCCC2)(c2cccnc2)CC1 (centres unmarked) [Example 42, 1-[4-Pyridin-3-yl-4-(3-pyrrolidin-1-yl-propyl)-piperidin-1-yl]-2-[[1-[[2-(trifluoromethyl)-phenyl]sulfonyl]-piperidin-2-yl]-methoxy]-ethanone]			100	102
Cc1cccc(Cl)c1S(=O)(=O)N(CCOCC(=O)N1CCC(CCCN2CCCC2)(c2cccc(F)c2)CC1)C1CC1 [Example 79, 2-Chloro-N-cyclopropyl-N-[2-[2-[4-(3-fluorophenyl)-4-(3-pyrrolidin-1-yl-propyl)-piperidin-1-yl]-2-oxo-ethoxy]-ethyl]-6-methyl-benzenesulfonic acid amide]	100	103		
COc1cc(C)c(S(=O)(=O)N2CCCCC2CCCC(=O)N2CCC(CCCN3CCCC3)(c3cccnc3)CC2)c(C)c1 (centres unmarked) [Example 61, 4-[1-[(4-Methoxy-2,6-dimethyl-phenyl)sulfonyl]-piperidin-2-yl]-1-[4-pyridin-3-yl-4-(3-pyrrolidin-1-yl-propyl)-piperidin-1-yl]-butan-1-one]			100	103
COc1cc(C)c(S(=O)(=O)N2CCCC[C@H]2COCC(=O)N2CCC(CCN3CCCC3)(c3cccnc3)CC2)c(C)c1 [Example 80, 2-[[(2S)-1-[(4-Methoxy-2,6-dimethyl-phenyl)sulfonyl]-piperidin-2-yl]-methoxy]-1-[4-pyridin-3-yl-4-(2-pyrrolidin-1-yl-ethyl)-piperidin-1-yl]-ethanone hydrochloride]	100	104		
O=C(CC(NS(=O)(=O)c1ccc2ccccc2c1)c1ccccc1)N1CCC(CCCN2CCCC2)(c2cccnc2)CC1 (centres unmarked) [Example 17, N-(3-Oxo-1-phenyl-3-(4-(pyridin-3-yl)-4-(3-(pyrrolidin-1-yl)propyl)piperidin-1-yl)propyl)naphthalene-2-sulfonamide]	94	81		
COc1cc(C)c(S(=O)(=O)N2CCCC[C@H]2COCC(=O)N2CCC(CN3CCCC3)(c3cccnc3)CC2)c(C)c1 [Example 25, (S)-2-((1-(4-Methoxy-2,6-dimethylphenylsulfonyl)piperidin-2-yl)methoxy)-1-(4-(pyridin-3-yl)-4-(pyrrolidin-1-ylmethyl)piperidin-1-yl)ethanone]	97	63		
O=C(COCC1COc2ccccc2N1S(=O)(=O)c1ccccc1C(F)(F)F)N1CCC(CCCN2CCCC2)(c2cccnc2)CC1 (centres unmarked) [Example 74, 1-[4-Pyridin-3-yl-4-(3-pyrrolidin-1-yl-propyl)-piperidin-1-yl]-2-[[4-[[2-(trifluoromethyl)-phenyl]sulfonyl]-3,4-dihydro-2H-[1,4]benzoxazin-3-yl]-methoxy]-ethanone]	100			93
COc1cc(C)c(S(=O)(=O)N(C)CCOCC(=O)N2CCC(CCCN3CCCC3)(c3cccnc3)CC2)c(C)c1C [Example 31, 4-Methoxy-N,2,3,6-tetramethyl-N-[2-[2-oxo-2-[4-pyridin-3-yl-4-(3-pyrrolidin-1-yl-propyl)-piperidin-1-yl]-ethoxy]-ethyl]-benzenesulfonic acid amide]	100	101		
COc1cc(C)c(S(=O)(=O)N2CCCCC2COCC(=O)N2CCC(CCN(C)C)(c3cccnc3)CC2)c(C)c1 (centres unmarked) [Example 8, 1-(4-(2-(Dimethylamino)ethyl)-4-(pyridin-3-yl)piperidin-1-yl)-2-((1-(4-methoxy-2,6-dimethylphenylsulfonyl)piperidin-2-yl)methoxy)ethanone]	104	102		
O=C(COCC1CCCCN1S(=O)(=O)c1ccccc1C(F)(F)F)N1CCC(CCCN2CCCC2)(c2cccnc2)CC1 (centres unmarked) [Example 41, 1-[4-Pyridin-3-yl-4-(3-pyrrolidin-1-yl-propyl)-piperidin-1-yl]-2-[[1-[[2-(trifluoromethyl)-phenyl]sulfonyl]-piperidin-2-yl]-methoxy]-ethanone]	100	104		
COc1cc(C)c(S(=O)(=O)N(CCOCC(=O)N2CCC(CCCN3CCCC3)(c3cccnc3)CC2)Cc2cnc3ccccc3c2)c(C)c1 [Example 71, 4-Methoxy-2,6-Dimethyl-N-[2-[2-oxo-2-[4-pyridin-3-yl-4-(3-pyrrolidin-1-yl-propyl)-piperidin-1-yl]-ethoxy]-ethyl]-N-(quinolin-3-yl-methyl)-benzenesulfonic acid amide]	100	103		
COc1cc(C)c(S(=O)(=O)N(C)CCOCC(=O)N2CCC(CCCN(C)C)(c3cccnc3)CC2)c(C)c1 [Example 23, N-(2-(2-(4-(3-(Dimethylamino)propyl)-4-(pyridin-3-yl)piperidin-1-yl)-2-oxoethoxy)ethyl)-4-methoxy-N,2,6-trimethylbenzenesulfonamide]	100	101		
